Results on 3 compounds are retold here after patent publication EP1086695B1, “Antiviral compositions comprising yohimbine as active principle” (Leone, Enzo, priority 1999, dated 2001).

Counter-ions that a name gives are not always drawn.

For series [1], the system named is herpetic keratoconjunctivitis. Kind of series: Example 2: clinical treatment of herpetic keratitis. It counts as in vivo, subjects. The source says: These re-occurrences of acute episodes were, however, mastered with three-week cycles of treatment using the drug in question, with three-week rest intervals between one cycle and another.
The test system of a further series is herpes progenitalis. Kind of series: Example 4: treatment of herpes progenitalis in a serious form (single case). Type of series: in vivo, person. On the procedure: The patient took 5 mg/day of yohimbine HCI for more than one year with three-week rest intervals every three months, using a galenical preparation consisting of: […]
Series [2] can be described thus: Doses effective as antiviral agent (general finding). Type of series: in vivo. The note with it: expressed as free base. As to the method:
The preferred dosage is 5 mg/day from the onset of the first signs of the viral infection up to its cure. In the case of long courses of treatment, it is preferable to follow a scheme of two- or three-month cycles with intervals of rest of 10-15 days. Higher doses than the range indicated may result in a failure of the curative effect, this being due to the peculiarity of yohimbine, observed on various organs and apparatus, namely of stimulating an action (for example, splenocontraction) at a certain dose level, and the opposite action (splenodilation) at higher dose levels. Doses below the limit indicated may be therapeutically ineffective.

The test system of the next series is herpes virus 1 or 2. Kind of series: Example 1: clinical treatment of herpes. Type of series: in vivo. The note with it: 5 mg/day; 30 patients. As to the method: In the course of 7 years, 30 patients suffering from herpes virus 1 or 2 were treated, the said patients still being currently under supervision.
The treatment involved the use of 5 mg/day of yohimbine HCI until resolution of the dermatological affections.

The next series concerns influenza. Kind of series: Example 3: clinical treatment of influenza syndromes. It counts as in vivo. The note with it: 5 mg/day, 7-10 day treatment; including elderly patients and children.
A further series concerns HSV-1. The note with it: against HSV-1 in their screening system; cited from earlier work.

Turning to `Nc1nc2c(ncn2COCCO)c(=O)[nH]1` [acyclovir], the “benefit in terms of recidivation” value in series [1] (earlier classic treatment of the same 10 subjects) is reported as “without any benefit”. In the series with herpes progenitalis (earlier treatment with specific drugs), the “outcome of earlier treatment” value is given as “unsuccessfully”.

On to `COC(=O)[C@@H]1[C@H]2C[C@H]3c4[nH]c5ccccc5c4CCN3C[C@@H]2CC[C@@H]1O` [yohimbine, methyl 17-alpha-hydroxy-20-alpha-yohimban-16-beta-carboxylate], for which, in series [2], the “doses at which yohimbine is effective as antiviral agent” value lay within 3 to 10 mg/day.

Take `COC(=O)[C@@H]1[C@H]2C[C@H]3c4[nH]c5ccccc5c4CCN3C[C@@H]2CC[C@@H]1O` [yohimbine HCI, yohimbine hydrochloride]: the relapse result is “considerable reduction in the number of cases of relapse” in the series with herpes virus 1 or 2; “the cases of relapse were less frequent and of shorter duration” in series [1] (5 mg/day, 10 subjects). Moreover, the pain result in series [1] (5 mg/day, in periods when the affection became more acute) is reported as “the pain involved became more tolerable”. In series [1] (treatment lasting several years, three-week cycles), the tolerability of treatment entry is “without any problems of any sort arising”. Further, in the series with influenza, the outcome of influenza is “complete resolution”. Besides, the side effect entry in the series with herpes progenitalis (5 mg/day for more than one year) was “did not reveal any side effect”. The “lesions and vesicular eruptions” value in the series on herpes progenitalis (5 mg/day tablet, three-week rest intervals every three months) was “within approximately six months led to the disappearance of the lesions and of the vesicular eruptions”. The recurrence entry in the series on herpes progenitalis (follow-up after treatment) is reported as “Only one other slight episode of recurrence occurred five years later”. The antiherpes activity result in the series with HSV-1 was “inactive”.
